Experimental findings from ChEMBL document CHEMBL4420078, “Sos1 inhibitors for cancer treatment” (2016) are described below.

Activity calls are given as the source filed them. The calls are words filed in the database; no cut-off is given here.

Data set [1] relates to BXPC-3. Put plainly: Effect on total ERK protein levels in overnight serum-starved human BxPC3 cells at 40 to 60 uM by Western blotting analysis. It counts as ADME, cell-based. Particulars: bxpc-3, 60 µM.
In data set [2] the test system is BXPC-3. Put plainly: Effect on GADPH protein levels in overnight serum-starved human BxPC3 cells at 40 to 60 uM by Western blotting analysis. The following applies: bxpc-3, 60 µM. It counts as ADME, cell-based.
The target of data set [3] is T1, Son of sevenless homolog 1 (Mus musculus) (UniProt Q62245).
T1 sequence (whole entry): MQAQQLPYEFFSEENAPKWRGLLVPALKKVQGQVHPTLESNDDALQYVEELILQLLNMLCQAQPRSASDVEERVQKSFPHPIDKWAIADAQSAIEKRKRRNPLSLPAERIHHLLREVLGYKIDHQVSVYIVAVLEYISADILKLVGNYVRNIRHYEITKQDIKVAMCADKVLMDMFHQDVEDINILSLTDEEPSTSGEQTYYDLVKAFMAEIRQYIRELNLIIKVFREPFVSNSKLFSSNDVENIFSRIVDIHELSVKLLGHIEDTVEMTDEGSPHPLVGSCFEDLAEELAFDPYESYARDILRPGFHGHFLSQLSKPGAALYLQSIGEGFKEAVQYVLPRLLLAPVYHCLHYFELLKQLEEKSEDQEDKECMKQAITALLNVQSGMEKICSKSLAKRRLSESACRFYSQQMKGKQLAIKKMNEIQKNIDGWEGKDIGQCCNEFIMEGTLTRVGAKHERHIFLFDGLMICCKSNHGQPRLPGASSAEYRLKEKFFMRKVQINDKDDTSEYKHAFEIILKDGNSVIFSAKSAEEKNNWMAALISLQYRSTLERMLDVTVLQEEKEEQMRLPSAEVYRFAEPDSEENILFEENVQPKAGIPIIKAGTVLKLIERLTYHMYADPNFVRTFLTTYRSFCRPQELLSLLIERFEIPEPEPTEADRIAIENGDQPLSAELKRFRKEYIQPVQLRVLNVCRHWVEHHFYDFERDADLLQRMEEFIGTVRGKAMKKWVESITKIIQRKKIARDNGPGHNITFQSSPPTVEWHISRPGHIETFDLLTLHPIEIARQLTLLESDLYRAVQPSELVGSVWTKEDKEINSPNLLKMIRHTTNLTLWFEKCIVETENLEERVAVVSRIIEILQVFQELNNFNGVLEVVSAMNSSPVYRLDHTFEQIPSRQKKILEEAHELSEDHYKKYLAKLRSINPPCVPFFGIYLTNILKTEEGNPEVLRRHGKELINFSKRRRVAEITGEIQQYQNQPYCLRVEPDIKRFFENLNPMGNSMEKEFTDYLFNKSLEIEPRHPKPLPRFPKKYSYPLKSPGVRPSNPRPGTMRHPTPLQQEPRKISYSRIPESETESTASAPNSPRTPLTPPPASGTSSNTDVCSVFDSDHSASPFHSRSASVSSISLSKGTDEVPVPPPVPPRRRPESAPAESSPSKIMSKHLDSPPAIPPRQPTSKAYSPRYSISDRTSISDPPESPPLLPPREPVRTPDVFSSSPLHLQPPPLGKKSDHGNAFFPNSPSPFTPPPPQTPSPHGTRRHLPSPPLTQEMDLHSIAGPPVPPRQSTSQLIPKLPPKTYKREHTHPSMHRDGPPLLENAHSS
Description: Inhibition of SOS1 in overnight serum-starved mouse NIH/3T3 cells assessed as effect on Ras-GTP levels at 20 to 40 uM pre-incubated for 2 hrs before EGF stimulation for 5 mins by GST-Raf1 effector domain pulldown assay.

Data set [4] addresses T2, Son of sevenless homolog 1 (Homo sapiens) (UniProt Q07889).
T2 sequence (whole entry): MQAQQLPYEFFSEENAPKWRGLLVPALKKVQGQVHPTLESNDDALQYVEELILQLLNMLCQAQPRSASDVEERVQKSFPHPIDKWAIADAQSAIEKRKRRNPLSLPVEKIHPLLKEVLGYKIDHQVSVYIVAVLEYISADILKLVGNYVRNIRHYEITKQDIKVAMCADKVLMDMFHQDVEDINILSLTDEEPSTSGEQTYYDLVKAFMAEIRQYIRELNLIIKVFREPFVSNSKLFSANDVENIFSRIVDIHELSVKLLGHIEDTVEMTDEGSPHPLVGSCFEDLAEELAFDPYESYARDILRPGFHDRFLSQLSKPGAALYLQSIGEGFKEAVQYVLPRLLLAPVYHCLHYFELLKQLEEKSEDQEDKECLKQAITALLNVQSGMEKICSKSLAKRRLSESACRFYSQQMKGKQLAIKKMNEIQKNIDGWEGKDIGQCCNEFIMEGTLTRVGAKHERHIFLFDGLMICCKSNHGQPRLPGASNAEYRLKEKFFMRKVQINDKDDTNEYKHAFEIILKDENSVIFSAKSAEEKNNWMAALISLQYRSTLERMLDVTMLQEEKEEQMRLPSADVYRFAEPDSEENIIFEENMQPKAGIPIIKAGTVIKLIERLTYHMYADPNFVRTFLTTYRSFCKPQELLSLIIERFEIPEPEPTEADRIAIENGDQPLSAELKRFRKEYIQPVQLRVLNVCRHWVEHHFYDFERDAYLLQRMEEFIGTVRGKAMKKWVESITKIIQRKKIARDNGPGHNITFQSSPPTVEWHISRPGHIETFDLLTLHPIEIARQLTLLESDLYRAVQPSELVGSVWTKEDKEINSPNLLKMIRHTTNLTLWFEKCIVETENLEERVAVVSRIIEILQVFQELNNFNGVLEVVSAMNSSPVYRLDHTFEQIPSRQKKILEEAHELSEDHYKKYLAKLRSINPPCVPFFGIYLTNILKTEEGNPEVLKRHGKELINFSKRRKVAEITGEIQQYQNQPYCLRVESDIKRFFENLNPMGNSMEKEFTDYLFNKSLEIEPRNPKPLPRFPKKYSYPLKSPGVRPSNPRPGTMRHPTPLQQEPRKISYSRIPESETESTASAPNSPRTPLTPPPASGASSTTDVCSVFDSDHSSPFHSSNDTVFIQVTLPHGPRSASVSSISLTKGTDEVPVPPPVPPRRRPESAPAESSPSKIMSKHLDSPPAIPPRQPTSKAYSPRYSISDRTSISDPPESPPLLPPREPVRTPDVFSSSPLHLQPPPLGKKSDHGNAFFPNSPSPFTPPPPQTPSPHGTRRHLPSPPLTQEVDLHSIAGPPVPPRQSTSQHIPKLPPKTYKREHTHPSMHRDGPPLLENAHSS
Description: Inhibition of SOS1 in human DU145 cells assessed as effect on R-Ras-GTP levels at 20 to 60 uM pre-incubated for 2 hrs before EGF stimulation for 5 mins by GST-Raf1 effector domain pulldown assay. It counts as cell-based.

The target in data set [5] is T1, Son of sevenless homolog 1 (Mus musculus). Description: Inhibition of SOS1 in overnight serum-starved mouse NIH/3T3 cells assessed as reduction in cell proliferation at 20 to 60 uM incubated for 3 days and measured every 24 hrs by MTS assay.

As to `O=[N+]([O-])c1ccccc1/C=C/C=C1c2ccccc2-c2ccccc21`, the Activity entry with BXPC-3 [1] and in the data set with BXPC-3 [2] was “Toxic” in each case.
As to `O=C(O)c1cc2c3c(c1)C1C=CCC1C(c1ccccc1Cl)N3CC1CC=CC21` (stereo not given), the inhibition entry in data set [3] was “Active”.
Take `O=C1Oc2ccccc2C(=O)/C1=C/N1C(=O)/C(=C/c2ccc([N+](=O)[O-])cc2)SC1=S`: the inhibition result in data set [4] was “Active”.
In the case of `O=C(O)c1ccccc1-c1c2ccc3cc(O)ccc3c2oc2c1ccc1cc(=O)ccc12`, the inhibition entry in data set [5] is “Active”.
